# Data taken from US20260207623A1, “USE OF ESTETROL IN HEPATICALLY IMPAIRED PATIENTS” (ESTETRA SRL, priority 2022, published 2026).
# Tests used:
# Assay type in all cases: in vivo, human
# post-menopausal women [1] = experiment: Example 2 dose-finding study: weekly severity of moderate to severe VMS; settings: for LS adjusted mean change from baseline in weekly severity of moderate to severe VMS: week 12, ANCOVA
# Excerpt: A severity scoring system to define the different severity categories of VMS is commonly used in the technical field: • a score of mild (1) for a sensation of heat without sweating; • a score of moderate (2) for a sensation of heat with sweating/the subject is able to continue activity; and • a score of severe (3) for a sensation of heat with sweating/which causes cessation of activity.
# In addition, a severity score of zero is attributed to the patients who have experienced a 100% VMS relief during a given week. From these score records, the VMS severity at baseline is typically calculated by taking into account only moderate and severe VMS, such that the total number of moderate VMS during the 7 days of the baseline week is multiplied by 2 and added to the total number of severe VMS during the 7 days of the baseline week multiplied by 3. This total is then divided by the total number of moderate and severe VMS during the baseline week.
# The severity at weeks 4 and 12 is calculated using the following formula for each of these weeks: • the number of mild VMS during 7 days multiplied by 1; • the number of moderate VMS during 7 days multiplied by 2; • the number of severe VMS during 7 days multiplied by 3; and adding the 3 resulting numbers together before dividing this total by the total number of mild, moderate and severe VMS during the 7 days of the week.
# All treatments (Estetrol, hereinafter E4 as monohydrate, [2.5 mg, 5 mg, 10 mg, 15 mg] capsule) were administered once daily (QD) per os for at least 12 consecutive weeks until the last biological assessments (Day 91 maximum) had been performed.
# In order to better analyse the data recorded in this study, treatment groups have been compared using an ANCOVA (analysis of covariance) with respect to the change in severity of moderate to severe VMS from baseline to mild, moderate and severe VMS at week 4 and week 12 for each active treatment versus placebo. For women who experienced 100% VMS relief at week 4 and/or week 12, a value of zero was attributed. The ANCOVA model includes treatment (“trt1”) as a fixed effect and baseline (“base”) as a covariate.
# post-menopausal women [2] = experiment: Example 3: menopause-specific Quality of Life (MENQOL) questionnaire; settings: compared to placebo treatment
# healthy women = experiment: Example 2 section G: adverse events after single and 14-day multiple oral doses of Estetrol monohydrate/Drospirenone 15 mg/3 mg and 30 mg/6 mg; settings: single dose then once daily for 14 days
# Protocol: The following treatments were administered to healthy women (between 15-50 years inclusive) according to the randomization code. • Placebo (n=16); • Group 15 mg: a single oral dose of 15 mg Estetrol monohydrate/3 mg Drospirenone (n=10) followed, after a washout of 14 days, by multiple oral doses of 15 mg Estetrol monohydrate/3 mg Drospirenone (n=10) once daily for 14 days; • Group 30 mg: a single oral dose of 30 mg Estetrol monohydrate/6 mg Drospirenone (n=10), followed, after a washout of 14 days, by multiple oral doses of 30 mg Estetrol monohydrate/6 mg Drospirenone (n=10) once daily for 14 days.
# Adverse events were recorded from first admission until completion of the follow-up visit (between 37 to 42 days after first day of treatment).
# [3] = 15 mg Estetrol monohydrate/3 mg Drospirenone
# [4] = 30 mg Estetrol monohydrate/6 mg Drospirenone
smiles,measurement,setting,value
"C[C@]12CC[C@@H]3c4ccc(O)cc4CC[C@H]3[C@@H]1[C@@H](O)[C@@H](O)[C@@H]2O [E4 monohydrate, estetrol monohydrate]",Mean change from baseline in weekly severity of moderate to severe VMS,"post-menopausal women [1]; 2.5 mg QD, week 0",0
same,Mean relative change (% from baseline) in weekly severity of moderate to severe VMS,"post-menopausal women [1]; 2.5 mg QD, week 0",0%
same,Mean relative change (% from baseline) in weekly severity of moderate to severe VMS,"post-menopausal women [1]; 2.5 mg QD, week 1",−7%
same,Mean relative change (% from baseline) in weekly severity of moderate to severe VMS,"post-menopausal women [1]; 2.5 mg QD, week 2",−9%
same,Mean relative change (% from baseline) in weekly severity of moderate to severe VMS,"post-menopausal women [1]; 2.5 mg QD, week 3",−14%
same,Mean relative change (% from baseline) in weekly severity of moderate to severe VMS,"post-menopausal women [1]; 2.5 mg QD, week 4",−15%
same,Mean relative change (% from baseline) in weekly severity of moderate to severe VMS,"post-menopausal women [1]; 2.5 mg QD, week 5",−17%
same,Mean relative change (% from baseline) in weekly severity of moderate to severe VMS,"post-menopausal women [1]; 2.5 mg QD, week 6",−22%
same,Mean relative change (% from baseline) in weekly severity of moderate to severe VMS,"post-menopausal women [1]; 2.5 mg QD, week 7",−20%
same,Mean relative change (% from baseline) in weekly severity of moderate to severe VMS,"post-menopausal women [1]; 2.5 mg QD, week 8",−24%
same,Mean relative change (% from baseline) in weekly severity of moderate to severe VMS,"post-menopausal women [1]; 2.5 mg QD, week 9",−24%
same,Mean relative change (% from baseline) in weekly severity of moderate to severe VMS,"post-menopausal women [1]; 2.5 mg QD, week 10",−26%
same,Mean relative change (% from baseline) in weekly severity of moderate to severe VMS,"post-menopausal women [1]; 2.5 mg QD, week 11",−25%
same,Mean relative change (% from baseline) in weekly severity of moderate to severe VMS,"post-menopausal women [1]; 2.5 mg QD, week 12",−28%
same,Mean change from baseline in weekly severity of moderate to severe VMS,"post-menopausal women [1]; 5 mg QD, week 0",0
same,Mean relative change (% from baseline) in weekly severity of moderate to severe VMS,"post-menopausal women [1]; 5 mg QD, week 0",0%
same,Mean relative change (% from baseline) in weekly severity of moderate to severe VMS,"post-menopausal women [1]; 5 mg QD, week 1",−4%
same,Mean relative change (% from baseline) in weekly severity of moderate to severe VMS,"post-menopausal women [1]; 5 mg QD, week 2",−5%
same,Mean relative change (% from baseline) in weekly severity of moderate to severe VMS,"post-menopausal women [1]; 5 mg QD, week 3",−7%
same,Mean relative change (% from baseline) in weekly severity of moderate to severe VMS,"post-menopausal women [1]; 5 mg QD, week 4",−10%
same,Mean relative change (% from baseline) in weekly severity of moderate to severe VMS,"post-menopausal women [1]; 5 mg QD, week 5",−7%
same,Mean relative change (% from baseline) in weekly severity of moderate to severe VMS,"post-menopausal women [1]; 5 mg QD, week 6",−14%
same,Mean relative change (% from baseline) in weekly severity of moderate to severe VMS,"post-menopausal women [1]; 5 mg QD, week 7",−12%
same,Mean relative change (% from baseline) in weekly severity of moderate to severe VMS,"post-menopausal women [1]; 5 mg QD, week 8",−14%
same,Mean relative change (% from baseline) in weekly severity of moderate to severe VMS,"post-menopausal women [1]; 5 mg QD, week 9",−14%
same,Mean relative change (% from baseline) in weekly severity of moderate to severe VMS,"post-menopausal women [1]; 5 mg QD, week 10",−15%
same,Mean relative change (% from baseline) in weekly severity of moderate to severe VMS,"post-menopausal women [1]; 5 mg QD, week 11",−18%
same,Mean relative change (% from baseline) in weekly severity of moderate to severe VMS,"post-menopausal women [1]; 5 mg QD, week 12",−17%
same,Mean change from baseline in weekly severity of moderate to severe VMS,"post-menopausal women [1]; 10 mg QD, week 0",0
same,Mean relative change (% from baseline) in weekly severity of moderate to severe VMS,"post-menopausal women [1]; 10 mg QD, week 0",0%
same,Mean relative change (% from baseline) in weekly severity of moderate to severe VMS,"post-menopausal women [1]; 10 mg QD, week 1",−8%
same,Mean relative change (% from baseline) in weekly severity of moderate to severe VMS,"post-menopausal women [1]; 10 mg QD, week 2",−13%
same,Mean relative change (% from baseline) in weekly severity of moderate to severe VMS,"post-menopausal women [1]; 10 mg QD, week 3",−17%
same,Mean relative change (% from baseline) in weekly severity of moderate to severe VMS,"post-menopausal women [1]; 10 mg QD, week 5",−21%
same,Mean relative change (% from baseline) in weekly severity of moderate to severe VMS,"post-menopausal women [1]; 10 mg QD, week 6",−26%
same,Mean relative change (% from baseline) in weekly severity of moderate to severe VMS,"post-menopausal women [1]; 10 mg QD, week 7",−27%
same,Mean relative change (% from baseline) in weekly severity of moderate to severe VMS,"post-menopausal women [1]; 10 mg QD, week 8",−28%
same,Mean relative change (% from baseline) in weekly severity of moderate to severe VMS,"post-menopausal women [1]; 10 mg QD, week 9",−28%
same,Mean relative change (% from baseline) in weekly severity of moderate to severe VMS,"post-menopausal women [1]; 10 mg QD, week 10",−29%
same,Mean relative change (% from baseline) in weekly severity of moderate to severe VMS,"post-menopausal women [1]; 10 mg QD, week 11",−25%
same,Mean relative change (% from baseline) in weekly severity of moderate to severe VMS,"post-menopausal women [1]; 10 mg QD, week 12",−28%
same,LS adjusted mean change from baseline in weekly severity of moderate to severe VMS,post-menopausal women [1]; 10 mg QD,−0.6934
same,Mean change from baseline in weekly severity of moderate to severe VMS,"post-menopausal women [1]; 15 mg QD, week 0",0
same,Mean relative change (% from baseline) in weekly severity of moderate to severe VMS,"post-menopausal women [1]; 15 mg QD, week 0",0%
same,Mean relative change (% from baseline) in weekly severity of moderate to severe VMS,"post-menopausal women [1]; 15 mg QD, week 1",−3%
same,Mean relative change (% from baseline) in weekly severity of moderate to severe VMS,"post-menopausal women [1]; 15 mg QD, week 2",−12%
same,Mean relative change (% from baseline) in weekly severity of moderate to severe VMS,"post-menopausal women [1]; 15 mg QD, week 3",−20%
same,Mean relative change (% from baseline) in weekly severity of moderate to severe VMS,"post-menopausal women [1]; 15 mg QD, week 4",−24%
same,Mean relative change (% from baseline) in weekly severity of moderate to severe VMS,"post-menopausal women [1]; 15 mg QD, week 5",−31%
same,Mean relative change (% from baseline) in weekly severity of moderate to severe VMS,"post-menopausal women [1]; 15 mg QD, week 6",−30%
same,Mean relative change (% from baseline) in weekly severity of moderate to severe VMS,"post-menopausal women [1]; 15 mg QD, week 7",−34%
same,Mean relative change (% from baseline) in weekly severity of moderate to severe VMS,"post-menopausal women [1]; 15 mg QD, week 8",−37%
same,Mean relative change (% from baseline) in weekly severity of moderate to severe VMS,"post-menopausal women [1]; 15 mg QD, week 9",−38%
same,Mean relative change (% from baseline) in weekly severity of moderate to severe VMS,"post-menopausal women [1]; 15 mg QD, week 10",−40%
same,Mean relative change (% from baseline) in weekly severity of moderate to severe VMS,"post-menopausal women [1]; 15 mg QD, week 11",−42%
same,Mean relative change (% from baseline) in weekly severity of moderate to severe VMS,"post-menopausal women [1]; 15 mg QD, week 12",−44%
same,LS adjusted mean change from baseline in weekly severity of moderate to severe VMS,post-menopausal women [1]; 15 mg QD,−1.042
same,total MENQOL scores,post-menopausal women [2],significantly improved
same,"TEAEs by relationship to study drug, Related, subjects reporting one or more AE",healthy women; [3],50%
same,"TEAEs by relationship to study drug, Total, subjects reporting one or more AE",healthy women; [3],80%
same,"TEAEs by relationship to study drug, Unrelated, subjects reporting one or more AE",healthy women; [3],50%
same,"TEAEs by relationship to study drug, Related, subjects reporting one or more AE",healthy women; [4],50%
same,"TEAEs by relationship to study drug, Total, subjects reporting one or more AE",healthy women; [4],70%
same,"TEAEs by relationship to study drug, Unrelated, subjects reporting one or more AE",healthy women; [4],50%
